According to patent US6632829B2, “Sulfonamides and derivatives thereof that modulate the activity of endothelin” (Texas Biotechnology Corp., priority 1996, dated 2003):

How the values were obtained:
[1] = biological target: T1, human ETB receptor (Homo sapiens, UniProt P24530); test: Endothelin binding inhibition, Binding Test #2: competition with 125I-ET-1 for ETB receptors on transfected COS7 cell membranes
T1 construct: expressed in transfected cells; host or cells: COS7 cells
T1 sequence (P24530 27-442): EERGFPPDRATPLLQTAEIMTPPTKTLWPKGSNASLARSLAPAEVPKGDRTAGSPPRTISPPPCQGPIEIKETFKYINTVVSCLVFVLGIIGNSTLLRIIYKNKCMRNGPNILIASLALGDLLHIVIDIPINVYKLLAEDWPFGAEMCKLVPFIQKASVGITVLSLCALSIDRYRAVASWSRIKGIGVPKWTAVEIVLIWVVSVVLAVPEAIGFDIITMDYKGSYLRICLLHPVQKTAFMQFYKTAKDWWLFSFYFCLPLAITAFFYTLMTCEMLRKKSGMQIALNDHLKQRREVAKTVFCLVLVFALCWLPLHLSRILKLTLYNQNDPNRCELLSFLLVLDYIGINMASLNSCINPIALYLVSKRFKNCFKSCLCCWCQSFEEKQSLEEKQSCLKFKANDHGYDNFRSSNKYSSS
In short: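 Membranes from COS7 cells transfected with human ETB receptor, prepared in HEPES pH 7.4 with aprotinin, MnCl2/DNase treatment at 37° C for 30 min. Test compounds compete with 125I-labeled ET-1 for receptor binding; membrane used at 1 μg/50 μL binding buffer.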

[2] = biological target: T2, human ETA receptors (Homo sapiens, UniProt P25101); test: Endothelin binding inhibition, Binding Test #1: competition with 125I-ET-1 for ETA receptors on TE 671 cell membranes
T2 construct: endogenous in cells; host or cells: TE 671 cells (ATCC HTB 139), membrane preparation
T2 sequence (P25101 21-427): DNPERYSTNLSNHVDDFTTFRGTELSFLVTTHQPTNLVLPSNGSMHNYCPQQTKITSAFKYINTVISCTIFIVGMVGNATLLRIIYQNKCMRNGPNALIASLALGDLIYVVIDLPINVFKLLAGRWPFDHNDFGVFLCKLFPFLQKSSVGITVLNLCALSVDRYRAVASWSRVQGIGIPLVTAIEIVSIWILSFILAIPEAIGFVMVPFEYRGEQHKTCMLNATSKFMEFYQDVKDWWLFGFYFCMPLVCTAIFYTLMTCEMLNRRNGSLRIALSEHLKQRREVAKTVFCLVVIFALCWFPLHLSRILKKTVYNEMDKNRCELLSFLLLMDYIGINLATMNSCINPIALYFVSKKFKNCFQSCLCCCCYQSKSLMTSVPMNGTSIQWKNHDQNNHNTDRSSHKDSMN

[3] = incubation at 24° C. (values marked †)
[4] = incubation at 4° C. (values without †)

Row | IC50 [1, 3] [nM] | IC50 [2, 3] [nM] | IC50 [1, 4] [nM] | IC50 [2, 4] [nM] | inhibition at 100 µM ([1]; read-out: ETB % inhibition @ 100 μM, @ 100 μM, incubation at 24° C.) [%] | Compound
1 | 15000 | 1200 | – | – | – | Cc1ccc(OCc2sccc2S(=O)(=O)Nc2onc(C)c2Br)cc1 [N-(4-bromo-3-methyl-5-isoxazolyl)-2-[(4-methylphenoxy)methyl]thiophene-3-sulfonamide]
2 | 3690 | 0.625 | – | – | – | Cc1cc2c(cc1CC(=O)c1sccc1S(=O)(=O)Nc1noc(C)c1Cl)OCO2 [N-(4-chloro-5-methyl-3-isoxazolyl)-2-[2-methyl-4,5-(methylenedioxy)phenylacetyl]thiophene-3-sulfonamide]
3 | 7450 | 346 | – | – | – | Cc1ccc(OCc2ccsc2S(=O)(=O)Nc2onc(C)c2Br)c(C)c1 [N-(4-bromo-3-methyl-5-isoxazolyl)-3-[(2,4-dimethylphenoxy)methyl]thiophene-2-sulfonamide]
4 | 12000 | 420 | – | – | – | Cc1noc(NS(=O)(=O)c2ccsc2C(=O)OCc2ccc3c(c2)OCO3)c1Cl [N-(4-chloro-3-methyl-5-isoxazolyl)-2-[3,4-(methylenedioxy)benzyloxycarbonyl]thiophene-3-sulfonamide]
5 | 20000 | 210 | – | – | – | Cc1noc(NS(=O)(=O)c2ccsc2C(=O)Nc2ccccc2C(=O)O)c1Br [N-(4-bromo-3-methyl-5-isoxazolyl)-2-[2-carboxylphenyl)aminocarbonyl]-thiophene-3-sulfonamide]
6 | 14000 | 10.5 | 2930 | 1.16 | – | Cc1ccc(NC(=O)c2sccc2S(=O)(=O)Nc2onc(C)c2Cl)cc1 [N-(4-chloro-3-methyl-5-isoxazolyl)-2-[(4-tolyl)aminocarbonyl]thiophene-3-sulfonamide]
7 | 800 | 16000 | – | – | – | Cc1noc(NS(=O)(=O)c2ccc(-c3cc4ccccc4s3)s2)c1Br [N-(4-bromo-3-methyl-5-isoxazolyl)-5-(benzo[b]thien-2-yl)thiophene-2-sulfonamide]
8 | 3630 | 46.8 | – | – | – | CCCc1ccc(-c2ccsc2S(=O)(=O)Nc2onc(C)c2Br)c(C)c1 [N-(4-bromo-3-methyl-5-isoxazolyl)-3-(2-methyl-4-propylphenyl)thiophene-2-sulfonamide]
9 | 16800 | 5.6 | – | – | – | Cc1noc(NS(=O)(=O)c2ccsc2C(=O)Nc2cc3c(cc2CCO)OCO3)c1Cl [N-(4-chloro-3-methyl-5-isoxazolyl)-2-[3,4-(methylenedioxy)-6-(2-hydroxyethyl)phenylaminocarbonyl]thiophene-3-sulfonamide]
10 | – | 1550 | 44100 | 160 | – | Cc1noc(NS(=O)(=O)c2ccsc2CO)c1Br [N-(4-bromo-3-methyl-5-isoxazolyl)-2-(hydroxymethyl)thiophene-3-sulfonamide]
11 | 81300 | 66 | – | – | – | Cc1noc(NS(=O)(=O)c2ccsc2C(=O)Nc2ccc(O)nn2)c1Br [N-(4-bromo-3-methyl-5-isoxazolyl)-2-[(3-hydroxyl-6-pyridazinyl)aminocarbonyl]thiophene-3-sulfonamide]
12 | ~100000 | 20900 | – | – | – | Cc1noc(NS(=O)(=O)c2ccsc2CC(c2ccc3c(c2)OCO3)N(C)C)c1Cl (stereo not drawn) [N-(4-chloro-3-methyl-5-isoxazolyl)-2-[β-(dimethylamino)-3,4-(methylenedioxy)phenethy]thiophene-3-sulfonamide]
13 | 37000 | 89 | – | – | – | Cc1noc(NS(=O)(=O)c2ccsc2C(=O)NC(=O)c2ccc3c(c2)OCO3)c1Br [N-(4-bromo-3-methyl-5-isoxazolyl)-2-[(3,4-methylenedioxy)benzoyl]aminocarbonyl]thiophene-3-sulfonamide]
14 | 90000 | 790 | – | – | – | COc1cccc(OC(=O)c2sccc2S(=O)(=O)Nc2onc(C)c2Br)c1 [N-(4-bromo-3-methyl-5-isoxazolyl)-2-[(3-methoxylphenoxy)carbonyl]thiophene-3-sulfonamide]
15 | ~5000 | ~100 | – | – | – | Cc1cc2c(cc1CCc1ccsc1S(=O)(=O)Nc1onc(C)c1Br)OCO2 [N-(4-bromo-3-methyl-5-isoxazolyl)-3-[2-methyl-4,5-(methylenedioxy)phenethyl]thiophene-2-sulfonamide]
16 | 39000 | 1600 | – | – | – | Cc1noc(NS(=O)(=O)c2sccc2Cc2ccccc2)c1Br [N-(4-bromo-3-methyl-5-isoxazolyl)-3-benzylthiophene-2-sulfonamide]
17 | 1660 | 46.8 | – | – | – | Cc1cc(CC(C)C)ccc1-c1ccsc1S(=O)(=O)Nc1onc(C)c1Br [N-(4-bromo-3-methyl-5-isoxazolyl)-3-(4-iso-butyl-2-methylphenyl)thiophene-2-sulfonamide]
18 | 79000 | 500 | – | – | – | Cc1noc(NS(=O)(=O)c2sccc2-c2ccc3c(c2)OCO3)c1Br [N-(4-bromo-3-methyl-5-isoxazolyl)-3-[(3,4-methylenedioxy)phenyl]thiophene-2-sulfonamide]
19 | 2760 | 82.3 | – | – | – | Cc1noc(NS(=O)(=O)c2sccc2-c2ccc(CC(C)C)cc2)c1Br [N-(4-bromo-3-methyl-5-isoxazolyl)-3-(4-iso-butylphenyl)thiophene-2-sulfonamide]
20 | – | 2710 | – | – | 20 | Cc1noc(NS(=O)(=O)c2ccsc2C(=O)Oc2ccccc2)c1Br [N-(4-bromo-3-methyl-5-isoxazolyl)-2-(phenoxycarbonyl)thiophene-3-sulfonamide]
21 | 6500 | 21 | – | – | – | Cc1noc(NS(=O)(=O)c2ccsc2C(=O)Cc2ccc3c(c2)OCO3)c1Cl [N-(4-chloro-3-methyl-5-isoxazolyl)-2-[3,4-(methylenedioxy)phenylacetyl]thiophene-3-sulfonamide]
22 | 32500 | 1800 | – | – | – | N-2-[3,4-(methylenedioxy)phenylacetyl]thiophene-3-sulfonamide
23 | 28300 | – | – | 218 | – | Cc1noc(NS(=O)(=O)c2sccc2-c2ccc(C(C)C)cc2)c1Br [N-(4-bromo-3-methyl-5-isoxazolyl)-3-(4-iso-propylphenyl)thiophene-2-sulfonamide]
24 | 19800 | 6.8 | – | – | – | Cc1noc(NS(=O)(=O)c2ccsc2C(=O)Nc2cc3c(cc2CNS(C)(=O)=O)OCO3)c1Cl [N-(4-chloro-3-methyl-5-isoxazolyl)-2-[2-methanesulfonylaminomethyl)-4,5-(methylenedioxy)phenylaminocarbonyl]thiophene-3-sulfonamide]

Row | Compound | IC50 [1, 3] [nM] | IC50 [2, 3] [nM] | IC50 [1, 4] [nM] | IC50 [2, 4] [nM] | inhibition at 100 µM ([1]; read-out: ETB % inhibition @ 100 μM, @ 100 μM, incubation at 24° C.) [%]
25 | CC(=O)OCCc1cc2c(cc1NC(=O)c1sccc1S(=O)(=O)Nc1onc(C)c1Cl)OCO2 [N-(4-chloro-3-methyl-5-isoxazolyl)-2-[3,4-(methylenedioxy)-6-(2-acetoxyethyl)phenylaminocarbonyl]thiophene-3-sulfonamide] | 25700 | 4.5 | – | – | –
26 | CC(=O)OCCOc1cc2c(cc1NC(=O)c1sccc1S(=O)(=O)Nc1onc(C)c1Cl)OCO2 [N-(4-chloro-3-methyl-5-isoxazolyl)-2-[3,4-(methylenedioxy)-6-(2-acetoxyethoxy)]phenylaminocarbonyl]thiophene-3-sulfonamide] | ~18000 | ~20 | – | – | –
27 | CC(=O)OCc1c(C)cc(C)c(NC(=O)c2sccc2S(=O)(=O)Nc2noc(C)c2Cl)c1C [N-(4-chloro-5-methyl-3-isoxazolyl)-2-(3-acetoxymethyl-2,4,6-trimethylphenylaminocarbonyl)thiophene-3-sulfonamide] | 19700 | 0.51 | – | – | –
